# PubChem BioAssay (NCI)
#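 How tested: cells in 96-well plates exposed to compound for 48 hours at five concentrations. GI50 = concentration required for 50% inhibition of growth. TGI denotes the concentration required for complete inhibition of growth.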
# How the values were obtained:
# Test in all cases: NCI tumour cell line growth inhibition, 48 h
# T-47D breast = system: T-47D breast
# A498 renal = system: A498 renal
# UO-31 renal = system: UO-31 renal
# MDA-MB-468 breast = system: MDA-MB-468 breast
# NCI-H460 lung = system: NCI-H460 lung
# NCI-H226 lung = system: NCI-H226 lung
# COLO 205 colon = system: COLO 205 colon
# UACC-257 melanoma = system: UACC-257 melanoma
# MCF7 breast = system: MCF7 breast
# SNB-19 CNS = system: SNB-19 CNS
# U251 CNS = system: U251 CNS
# DU-145 prostate = system: DU-145 prostate
# EKVX NSCLC = system: EKVX NSCLC
# CAKI-1 renal = system: CAKI-1 renal
# MALME-3M melanoma = system: MALME-3M melanoma
# BT-549 breast = system: BT-549 breast
# NCI/ADR-RES ovarian = system: NCI/ADR-RES ovarian
# KM12 colon = system: KM12 colon
# HOP-62 NSCLC = system: HOP-62 NSCLC
# LOX IMVI melanoma = system: LOX IMVI melanoma
# SF-295 CNS = system: SF-295 CNS
# MDA-MB-231 breast = system: MDA-MB-231 breast
# SN12C renal = system: SN12C renal
# SW-620 colon = system: SW-620 colon
# OVCAR-4 ovarian = system: OVCAR-4 ovarian
# CCRF-CEM leukemia = system: CCRF-CEM leukemia
# UACC-62 melanoma = system: UACC-62 melanoma
# SF-268 CNS = system: SF-268 CNS
# OVCAR-8 ovarian = system: OVCAR-8 ovarian
# RPMI-8226 leukemia = system: RPMI-8226 leukemia
# HCC-2998 colon = system: HCC-2998 colon
# NCI-H522 lung = system: NCI-H522 lung
# TK-10 renal = system: TK-10 renal
# OVCAR-3 ovarian = system: OVCAR-3 ovarian
# MDA-MB-435 = system: MDA-MB-435
# HOP-92 NSCLC = system: HOP-92 NSCLC
# MOLT-4 leukemia = system: MOLT-4 leukemia
# HL-60(TB) leukemia = system: HL-60(TB) leukemia
# SK-OV-3 ovarian = system: SK-OV-3 ovarian
# SK-MEL-28 melanoma = system: SK-MEL-28 melanoma
# K-562 leukemia = system: K-562 leukemia
# 786-0 renal = system: 786-0 renal
# OVCAR-5 ovarian = system: OVCAR-5 ovarian
# IGROV1 ovarian = system: IGROV1 ovarian
# RXF 393 renal = system: RXF 393 renal
# HCT-116 colon = system: HCT-116 colon
# M14 melanoma = system: M14 melanoma
# HCT-15 colon = system: HCT-15 colon
# SNB-75 CNS = system: SNB-75 CNS
# A549 NSCLC = system: A549 NSCLC
# HT29 colon = system: HT29 colon
# PC-3 prostate = system: PC-3 prostate
# SK-MEL-5 melanoma = system: SK-MEL-5 melanoma
# HS 578T breast = system: HS 578T breast
# SR leukemia = system: SR leukemia
# SK-MEL-2 melanoma = system: SK-MEL-2 melanoma
# NCI-H23 lung = system: NCI-H23 lung
# ACHN renal = system: ACHN renal
# SF-539 CNS = system: SF-539 CNS
smiles,measurement,setting,value
COc1cccc(-c2nn(-c3ccccc3)cc2-c2ccnc(NCCCNC(=O)Nc3ccc(F)cc3)c2)c1,GI50,T-47D breast,7.95 µM
same,TGI,T-47D breast,> 37 µM
same,GI50,A498 renal,7.37 µM
same,TGI,A498 renal,31.4 µM
same,GI50,UO-31 renal,5.1 µM
same,TGI,UO-31 renal,> 37 µM
same,GI50,MDA-MB-468 breast,4.83 µM
same,TGI,MDA-MB-468 breast,13 µM
same,GI50,NCI-H460 lung,6.54 µM
same,TGI,NCI-H460 lung,17.1 µM
same,GI50,NCI-H226 lung,10.8 µM
same,TGI,NCI-H226 lung,> 37 µM
same,GI50,COLO 205 colon,8.17 µM
same,TGI,COLO 205 colon,29.3 µM
same,GI50,UACC-257 melanoma,7.05 µM
same,TGI,UACC-257 melanoma,16.9 µM
same,GI50,MCF7 breast,7.17 µM
same,TGI,MCF7 breast,18 µM
same,GI50,SNB-19 CNS,12.1 µM
same,TGI,SNB-19 CNS,> 37 µM
same,GI50,U251 CNS,9.84 µM
same,TGI,U251 CNS,> 37 µM
same,GI50,DU-145 prostate,14 µM
same,TGI,DU-145 prostate,> 37 µM
same,GI50,EKVX NSCLC,9.63 µM
same,TGI,EKVX NSCLC,> 37 µM
same,GI50,CAKI-1 renal,8.63 µM
same,TGI,CAKI-1 renal,> 37 µM
same,GI50,MALME-3M melanoma,5.45 µM
same,TGI,MALME-3M melanoma,10.6 µM
same,GI50,BT-549 breast,6.24 µM
same,TGI,BT-549 breast,20.3 µM
same,GI50,NCI/ADR-RES ovarian,7.29 µM
same,TGI,NCI/ADR-RES ovarian,25.4 µM
same,GI50,KM12 colon,10.5 µM
same,TGI,KM12 colon,> 37 µM
same,GI50,HOP-62 NSCLC,14.7 µM
same,TGI,HOP-62 NSCLC,> 37 µM
same,GI50,LOX IMVI melanoma,5.86 µM
same,TGI,LOX IMVI melanoma,12 µM
same,GI50,SF-295 CNS,7.16 µM
same,TGI,SF-295 CNS,21.7 µM
same,GI50,MDA-MB-231 breast,7.84 µM
same,TGI,MDA-MB-231 breast,23 µM
same,GI50,SN12C renal,9.83 µM
same,TGI,SN12C renal,> 37 µM
same,GI50,SW-620 colon,8.02 µM
same,TGI,SW-620 colon,> 37 µM
same,GI50,OVCAR-4 ovarian,10.5 µM
same,TGI,OVCAR-4 ovarian,> 37 µM
same,GI50,CCRF-CEM leukemia,8.53 µM
same,TGI,CCRF-CEM leukemia,31.5 µM
same,GI50,UACC-62 melanoma,7.57 µM
same,TGI,UACC-62 melanoma,24.2 µM
same,GI50,SF-268 CNS,7.08 µM
same,TGI,SF-268 CNS,30 µM
same,GI50,OVCAR-8 ovarian,10.6 µM
same,TGI,OVCAR-8 ovarian,> 37 µM
same,GI50,RPMI-8226 leukemia,5.96 µM
same,TGI,RPMI-8226 leukemia,24.6 µM
same,GI50,HCC-2998 colon,7.38 µM
same,TGI,HCC-2998 colon,20 µM
same,GI50,NCI-H522 lung,5.07 µM
same,TGI,NCI-H522 lung,12 µM
same,GI50,TK-10 renal,21.2 µM
same,TGI,TK-10 renal,> 37 µM
same,GI50,OVCAR-3 ovarian,6.18 µM
same,TGI,OVCAR-3 ovarian,> 37 µM
same,GI50,MDA-MB-435,5.61 µM
same,TGI,MDA-MB-435,12.8 µM
same,GI50,HOP-92 NSCLC,6.25 µM
same,TGI,HOP-92 NSCLC,31.1 µM
same,GI50,MOLT-4 leukemia,3.94 µM
same,TGI,MOLT-4 leukemia,19 µM
same,GI50,HL-60(TB) leukemia,3.77 µM
same,TGI,HL-60(TB) leukemia,13.7 µM
same,GI50,SK-OV-3 ovarian,10.8 µM
same,TGI,SK-OV-3 ovarian,> 37 µM
same,GI50,SK-MEL-28 melanoma,6.57 µM
same,TGI,SK-MEL-28 melanoma,15.5 µM
same,GI50,K-562 leukemia,2.96 µM
same,TGI,K-562 leukemia,> 37 µM
same,GI50,786-0 renal,9.34 µM
same,TGI,786-0 renal,> 37 µM
same,GI50,OVCAR-5 ovarian,11.2 µM
same,TGI,OVCAR-5 ovarian,> 37 µM
same,GI50,IGROV1 ovarian,9.34 µM
same,TGI,IGROV1 ovarian,> 37 µM
same,GI50,RXF 393 renal,6.01 µM
same,TGI,RXF 393 renal,28.6 µM
same,GI50,HCT-116 colon,5.7 µM
same,TGI,HCT-116 colon,17 µM
same,GI50,M14 melanoma,6.71 µM
same,TGI,M14 melanoma,19 µM
same,GI50,HCT-15 colon,7.64 µM
same,TGI,HCT-15 colon,> 37 µM
same,GI50,SNB-75 CNS,4.18 µM
same,TGI,SNB-75 CNS,22.7 µM
same,GI50,A549 NSCLC,9.95 µM
same,TGI,A549 NSCLC,> 37 µM
same,GI50,HT29 colon,7.17 µM
same,TGI,HT29 colon,18.2 µM
same,GI50,PC-3 prostate,6.23 µM
same,TGI,PC-3 prostate,> 37 µM
same,GI50,SK-MEL-5 melanoma,5.64 µM
same,TGI,SK-MEL-5 melanoma,10.8 µM
same,GI50,HS 578T breast,6.24 µM
same,TGI,HS 578T breast,17.9 µM
same,GI50,SR leukemia,7.7 µM
same,TGI,SR leukemia,> 37 µM
same,GI50,SK-MEL-2 melanoma,6.3 µM
same,TGI,SK-MEL-2 melanoma,12.6 µM
same,GI50,NCI-H23 lung,10.1 µM
same,TGI,NCI-H23 lung,> 37 µM
same,GI50,ACHN renal,10.6 µM
same,TGI,ACHN renal,> 37 µM
same,GI50,SF-539 CNS,6.34 µM
same,TGI,SF-539 CNS,13.4 µM
